Measurements from US20250034135A1, “ANTI-APOPTOTIC PROTEIN BCL-2 INHIBITOR, PHARMACEUTICAL COMPOSITION AND USES THEREOF” (HANGZHOU HEALZEN THERAPEUTICS CO., LTD., priority 2021, published 2025).
Like-named read-outs stand apart in the source and are kept apart here.

Key:
[1] = beagle, dog, in vivo, 5 mg/kg
Experimental: (§1) Experimental method: Beagle dogs were used as experimental animals and administered 5 mg/kg by gavage. The blood collection time points for gavage administration were 0, 0.5, 1, 2, 3, 4, 6, 8, and 24 hours. 3 mL of whole blood was collected, and after centrifugation, plasma was taken for LC-MS analysis.

in vivo = conditions: Sprague-Dawley, rat, po, 10 mg/kg
Experimental: (§2) Experimental method: SD rats were used as experimental animals and administered 10 mg/kg by gavage. The blood collection time points for gavage administration were 0, 0.5, 1, 2, 3, 4, 6, 8, and 24 hours. 3 mL of whole blood was collected, and after centrifugation, 1 mL of plasma was taken for LC-MS analysis.

human CYP3A4 enzyme [2] = molecular target: T1, human CYP3A4 enzyme (Homo sapiens (Human), UniProt P08684)
RS4; 11 cells [3] = test: In vivo anti-tumor efficacy, RS4; 11 subcutaneous transplanted tumor model; conditions: 11 transplanted tumor, NOD/SCID mice, after 8 days
Excerpt: Tumor models were established by subcutaneous inoculation of RS4; 11 cells into NOD/SCID mice. When the tumors grew to about 100 mm^3, the mice were divided into groups and administered as follows: The control group was given a corresponding volume of CMC-Na solution by gavage; […]; the weight and tumor size changes of the mice were weighed twice a week, and after 8 days, the efficacy of the compounds on RS4; 11 mice transplanted tumors was investigated.
The relative tumor proliferation rate T/C %=TRTV/CRTV×100% (TRTV: average RTV of the treatment group; CRTV: average RTV of the negative control group). Based on the results of tumor measurements, the relative tumor volume (RTV) was calculated using the formula RTV=Vt/V0, where V0 was the tumor volume measured during group division (i.e. D0), Vt was the tumor volume at a certain measurement, and TRTV and CRTV used the data of the same day.

RS4; 11 cells [4] = test: Tumor proliferation inhibitory activity test (MTS) on RS4; 11; format: cell-based; conditions: 3 days incubation
Procedure, shortened: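 RS4;11 cells were exposed to serially diluted compound (0.2% DMSO control) for 3 days at 37 °C/5% CO2, followed by MTS for 3–4 h. Read-out was OD490−OD690, and inhibition was calculated relative to the DMSO and blank wells.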

human CYP3A4 enzyme [5] = molecular target: T1, human CYP3A4 enzyme; test: CYP3A4 enzyme inhibitory activity (Vivid CYP3A4 Green screening kit); conditions: read-out: CYP3A4 (IC50); Vivid CYP3A4 Green screening kit
Rat absorption test = conditions: Sprague-Dawley, plasma, po, 10 mg/kg
Experimental: as §2

BCL2 (G101V) = BCL2 (G101V) (Homo sapiens (Human), UniProt P10415, G101V); test: Molecular level activity test of anti-apoptotic protein BCL2 (G101V) (HTRF, binding to Bim peptide); conditions: inhibition of BCL2 (G101V) binding to Bim peptide, read-out: BCL-2 (G101V)
Procedure, shortened: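 His-tagged recombinant BCL2 (G101V) incubated 1 h with biotin-BIM peptide and compound (2% DMSO), then anti-His and streptavidin-XL665 detection reagents added for 4 h at room temperature. HTRF signal reflects compound effect on BCL2–BIM binding.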

human platelets = test: Platelet viability test (CTG); format: cell-based; conditions: CTG after 24 h
Experimental: After 10 mL of platelet-rich plasma was added to 30 mL of ACD-A solution and uniformly mixed, centrifugation was performed at 1200 g, and the supernatant was discarded; 10 mL of ACD-A solution was added, resuspended, uniformly mixed, and centrifuged at 1200 g for 10 min, and the supernatant was discarded. 5 mL of HEPES-Tyrode's buffer containing 1 μM PGE1 and 0.2 U/mL apyrase was added, slightly inverted, and then centrifuged at 800 g for 5 min, and the supernatant was discarded. 10 mL of HEPES-Tyrode's buffer containing 1 μM PGE1 and 0.2 U/mL apyrase was added, resuspended, and centrifuged at 1000 g for 5 min, and the supernatant was discarded. 2 mL of HEPES-Tyrode's buffer containing 1 μM PGE1+10% FBS-resuspended platelets was added, 200 μL was taken into a centrifuge tube and diluted to 2 mL. Then it was diluted to 1, 0.8, 0.6, 0.4, 0.2, 0.1, 0.08, 0.06, 0.04, 0.02, 0.01 times, the volume was complemented to 100 μL, and 50 μL of CTG reagent was added to detect cell viability. The maximum valid dilution with a fluorescence value not exceeding […] was selected for dilution, 90 μL/well was connected to a 96-well cell plate for chemiluminescence detection. A compound was prepared with HEPES-Tyrode's buffer containing 1 μM of PGE1+10% FBS, and added to the cells, which was gently beaten evenly and detected for cell viability by adding 50 μL CTG after 24 h.

BCL2 (D103Y) = BCL2 (D103Y) (Homo sapiens (Human), UniProt P10415, D103Y); test: Molecular level activity test of BCL2 (D103Y) (HTRF, binding to Bim peptide); conditions: read-out: BCL-2 (D103Y) (nM) (inhibitory activity, IC50)
Procedure, shortened: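 His-tagged recombinant protein mixed with biotinylated BIM peptide and compound (2% DMSO), reacted 1 h. Anti-His and streptavidin-XL665 detection reagents then added and incubated 4 h at room temperature before HTRF read-out of binding inhibition.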

Canine absorption test = conditions: Beagle dogs, 5 mg/kg by gavage
Experimental: as §1

BCL-XL = BCL-XL (Homo sapiens (Human), UniProt Q07817); test: BCL-XL enzyme molecular level activity test (HTRF, binding to BIM peptide); conditions: binding of BCL-XL to BIM peptide, read-out: BCL-XL inhibitory activity (IC50)
Procedure, shortened: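 HTRF binding assay: His-tagged recombinant BCL-XL with biotin-BIM peptide and compound (2% DMSO), 1 h. Anti-His and streptavidin-XL665 detection reagents added, 4 h at room temperature. Excitation 320 nm; 665/615 nm ratio reflects binding, with no-protein background and no-compound full-binding controls.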

BCL2 = BCL2 (Homo sapiens (Human), UniProt P10415); test: Molecular level activity test of anti-apoptotic protein BCL2 (HTRF, binding to Bim peptide); conditions: HTRF, binding of BCL2 to Bim peptide; read-out: BCL2 nM (inhibitory activity, IC50)
Procedure, shortened: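 Compound (2% DMSO) was mixed with His-tagged recombinant BCL2 and biotinylated Bim peptide for 1 h. Detection used anti-His antibody plus streptavidin-XL665 for 4 h at room temperature, read by time-resolved fluorescence.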

T1 sequence (P08684 whole entry): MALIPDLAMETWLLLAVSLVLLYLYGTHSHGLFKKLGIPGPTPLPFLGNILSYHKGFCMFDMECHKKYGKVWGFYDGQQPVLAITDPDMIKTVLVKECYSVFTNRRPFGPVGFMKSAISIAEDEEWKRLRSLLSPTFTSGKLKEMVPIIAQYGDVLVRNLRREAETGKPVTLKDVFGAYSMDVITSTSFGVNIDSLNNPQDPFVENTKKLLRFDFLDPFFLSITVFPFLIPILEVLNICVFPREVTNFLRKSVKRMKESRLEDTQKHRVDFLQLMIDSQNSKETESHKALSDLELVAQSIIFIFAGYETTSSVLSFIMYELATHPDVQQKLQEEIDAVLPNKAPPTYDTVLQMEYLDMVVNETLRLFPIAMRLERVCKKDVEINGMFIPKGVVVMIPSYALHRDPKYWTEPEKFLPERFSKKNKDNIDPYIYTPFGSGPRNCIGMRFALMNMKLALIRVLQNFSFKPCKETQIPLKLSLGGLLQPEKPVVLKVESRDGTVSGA
BCL-XL, sequence (Q07817 whole entry): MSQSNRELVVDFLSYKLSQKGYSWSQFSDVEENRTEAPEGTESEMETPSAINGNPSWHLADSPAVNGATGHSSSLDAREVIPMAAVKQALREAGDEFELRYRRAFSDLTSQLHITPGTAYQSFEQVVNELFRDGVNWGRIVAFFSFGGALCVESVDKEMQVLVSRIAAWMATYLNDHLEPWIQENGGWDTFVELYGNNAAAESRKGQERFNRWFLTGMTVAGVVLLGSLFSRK

DNAUC [1]	AUC (in vivo) [ng·h/mL]	IC50 (human CYP3A4 enzyme [2]) [nM]	IC50 (RS4; 11 cells [4]) [nM]	IC50 (BCL-XL; values given in μM) [nM]	Compound	T/C % (RS4; 11 cells [3]; 5 mg/kg by gavage) [%]	IC50 (RS4; 11 cells [4]; Homo sapiens, RS4-11, 72 h) [nM]	IC50 (human CYP3A4 enzyme [5]) [nM]	AUC (Rat absorption test) [ng·h/mL]	IC50 (BCL2 (G101V)) [nM]	IC50 (human platelets) [nM]	IC50 (BCL2 (D103Y)) [nM]	DNAUC (Canine absorption test)	IC50 (BCL-XL; values in nM) [nM]	IC50 (BCL2) [nM]	T/C % (RS4; 11 cells [3]; 15 mg/kg by gavage) [%]
13685 AUC (h*ng/mL)/dose (mg/kg)	3330	> 20000			COc1ccc(CN2CCN(C3CC4(CCN(c5cc(Oc6cnc7[nH]ccc7c6)c(C(=O)NS(=O)(=O)c6ccc(NCC7(F)CCOCC7)c([N+](=O)[O-])c6)cc5F)CC4)C3)[C@H](c3ccccc3C(C)C)C2)cc1 [compound 152, (R)-2-((1H-pyrrolo[2,3-b]pyrid-5-yl)oxy)-5-fluoro-N-((4-(((4-fluorotetrahydro-2H-pyran-4-yl)methyl)amino)-3-nitrophenyl)sulfonyl)-4-(2-(2-(2-isopropylphenyl)-4-(4-methoxybenzyl)piperazin-1-yl)-7-azaspiro[3.5]non-7-yl)benzamide]											
					COc1ccc(CN2CCN(C3CC4(CCN(c5cc(Oc6cnc7[nH]ccc7c6)c(C(=O)NS(=O)(=O)c6ccc(NC[C@H]7CC[C@](C)(O)CC7)c([N+](=O)[O-])c6)cc5F)CC4)C3)[C@H](c3ccccc3C(C)C)C2)cc1 [compound 234]	1.26	< 0.5	> 20000	5630	< 10	> 5000	< 10	9103 AUC (h*ng/mL)/dose (mg/kg)	> 500	< 10	
					COc1ccc(CN2CCN(C3CC4(CCN(c5cc(Oc6cnc7[nH]ccc7c6)c(C(=O)NS(=O)(=O)c6ccc(NC[C@H]7CC[C@](C)(O)CC7)c([N+](=O)[O-])c6)cn5)CC4)C3)[C@H](c3ccccc3C(C)C)C2)cc1 [compound 256, 4-((1H-pyrrolo[2,3-b]pyrid-5-yl)oxy)-N-((4-((((1r, 4r)-4-hydroxy-4-methylcyclohexyl)methyl)amino)-3-nitrophenyl)sulfonyl)-6-(2-((R)-2-(2-isopropylphenyl)-4-(4-methoxybenzyl)piperazin-1-yl)-7-azaspiro[3.5]non-7-yl) nicotinamide]		< 0.5	> 20000	1800	< 10		< 10			< 10	
					COc1ccc(CN2CCN(C3CC4(CCN(c5ccc(C(=O)NS(=O)(=O)c6cc([N+](=O)[O-])c(NCC7(F)CCOCC7)c7[nH]cnc67)c(Oc6cnc7[nH]ccc7c6)c5)CC4)C3)[C@H](c3ccccc3C(C)C)C2)cc1 [compound 261, (R)-2-((1H-pyrrolo[2,3-b]pyrid-5-yl)oxy)-N-((7-(((4-fluorotetrahydro-2H-pyran-4-yl)methyl)amino)-6-nitro-1H-benzo[d]imidazol-4-yl)sulfonyl)-4-(2-(2-(2-isopropylphenyl)-4-(4-methoxybenzyl)piperazin-1-yl)-7-azaspiro[3.5]non-7-yl)benzamide]		< 0.5	> 20000	1210	< 10		< 10			< 10	5.35
					COc1ccc(CN2CCN(C3CC4(CCN(c5cc(Oc6cnc7[nH]ccc7c6)c(C(=O)NS(=O)(=O)c6cc([N+](=O)[O-])c(NC[C@H]7CC[C@](C)(O)CC7)c7[nH]cnc67)cn5)CC4)C3)[C@H](c3ccccc3C(C)C)C2)cc1 [compound 266, 4-((1H-pyrrolo[2,3-b]pyrid-5-yl)oxy)-N-((7-((((1r,4r)-4-hydroxy-4-methylcyclohexyl)methyl)amino)-6-nitro-1H-benzo[d]imidazol-4-yl)sulfonyl)-6-(2-((R)-2-(2-isopropylphenyl)-4-(4-methoxybenzyl)piperazin-1-yl)-7-azaspiro[3.5]non-7-yl) nicotinamide]	15.38	< 0.5	> 20000		< 10		< 10			< 10	
			< 0.5	> 1000	(R)-2-((1H-pyrrolo[2,3-b]pyrid-5-yl)oxy)-5-fluoro-N-((4-(((4-fluorotetrahydro-2H-pyran-4-yl)methyl)amino)-3-nitrophenyl)sulfonyl)-4-(2-(2-(2-isopropylphenyl)-4-(4-methoxybenzyl)piperazin-1-yl)-7-azaspiro[3.5]non-7-yl)benzamide [compound 152]	0.35				< 10	> 5000	< 10			< 10	
